Measured values published in patent US12139520B2 (priority 2020, dated 2024).
Numbered stars: 1 amine (or outer) side, 2 acyl side, 3 side chain; on linkers, the order of the positions; unused ones are H or OH. Bridge positions count the residues as written; N and C are the ends. Square brackets hold non-standard residues; d marks the D form. Peptide text beside a SMILES is read from it. * marks the point of attachment. C20 diacid = O=C(O)CCCCCCCCCCCCCCCCCCC(=O)*; γGlu = O=C(O)[C@H](CCC(=O)[*:2])N[*:1]; Hyp = O=C(O)[C@@H]1C[C@@H](O)CN1

Columns and labels:
hAM1 receptor = hAM1 receptor (Homo sapiens, UniProt O60895+Q16602); test: cAMP assay for in vitro receptor activation, hAM1-R; type: cell-based; conditions: cAMP assay, hAM1 receptor; read-out: hAM1R EC50
In short: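 Read-out is intracellular cAMP as a measure of receptor activation. Cells stably overexpressing hAM1 were subcloned to a monoclonal line, then thawed and seeded at 8000 cells/well in DPBS with 0.05% casein and the phosphodiesterase inhibitor IBMX at 0.5 mM.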

hAMY3 receptor = target: T1, hAMY3 receptor (Homo sapiens, UniProt O60896+P30988); test: cAMP assay for in vitro receptor activation, hAMY3-R; type: cell-based; conditions: cAMP assay, hAMY3 receptor; read-out: hAMY3R EC50
T1 sequence (P30988 25-474): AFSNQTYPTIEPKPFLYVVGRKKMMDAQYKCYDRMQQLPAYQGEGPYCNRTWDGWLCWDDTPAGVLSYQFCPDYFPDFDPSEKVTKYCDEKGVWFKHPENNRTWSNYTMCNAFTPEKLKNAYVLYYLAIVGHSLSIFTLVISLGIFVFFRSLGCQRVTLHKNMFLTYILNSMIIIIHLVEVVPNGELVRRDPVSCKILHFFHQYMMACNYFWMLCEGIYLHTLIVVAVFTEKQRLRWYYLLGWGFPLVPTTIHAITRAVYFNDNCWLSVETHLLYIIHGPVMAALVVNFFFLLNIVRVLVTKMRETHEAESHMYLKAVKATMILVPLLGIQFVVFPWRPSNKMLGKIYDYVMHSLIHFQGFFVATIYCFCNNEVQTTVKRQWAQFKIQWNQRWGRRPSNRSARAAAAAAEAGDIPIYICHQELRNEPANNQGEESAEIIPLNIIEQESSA
T1 sequence (O60896 24-148 partner): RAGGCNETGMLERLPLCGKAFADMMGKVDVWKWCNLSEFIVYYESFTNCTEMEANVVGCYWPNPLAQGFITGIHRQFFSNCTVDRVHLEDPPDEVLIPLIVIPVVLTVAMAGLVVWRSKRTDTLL
In short: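 Monoclonal cell line stably overexpressing human AMY3 receptor, 2000 cells/well in DPBS with 0.05% casein and 0.5 mM IBMX. Stimulated 30 min at room temperature with graded compound doses, human amylin as positive control. cAMP accumulation read by TR-FRET after one hour.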

hAM1 receptor, sequence (Q16602 23-461): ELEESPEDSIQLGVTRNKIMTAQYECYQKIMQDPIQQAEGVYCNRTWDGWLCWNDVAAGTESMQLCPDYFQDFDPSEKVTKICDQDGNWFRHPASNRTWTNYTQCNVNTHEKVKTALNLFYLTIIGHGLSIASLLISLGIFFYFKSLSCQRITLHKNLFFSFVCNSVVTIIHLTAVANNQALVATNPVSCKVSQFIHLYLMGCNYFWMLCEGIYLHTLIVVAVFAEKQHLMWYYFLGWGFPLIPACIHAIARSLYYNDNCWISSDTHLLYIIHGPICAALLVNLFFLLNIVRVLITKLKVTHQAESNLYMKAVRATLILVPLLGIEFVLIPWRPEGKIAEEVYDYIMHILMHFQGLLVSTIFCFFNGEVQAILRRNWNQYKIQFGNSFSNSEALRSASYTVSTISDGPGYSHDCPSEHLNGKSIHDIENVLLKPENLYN
hAM1 receptor, sequence (O60895 43-175 partner): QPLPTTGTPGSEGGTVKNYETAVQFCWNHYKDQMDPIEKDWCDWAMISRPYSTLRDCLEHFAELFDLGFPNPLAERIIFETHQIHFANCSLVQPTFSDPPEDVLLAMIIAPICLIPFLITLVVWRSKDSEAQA

CC[C@H](C)[C@H](NC(=O)[C@H](CCC(N)=O)NC(=O)[C@H](Cc1c[nH]cn1)NC(=O)[C@H](C)NC(=O)[C@H](CC(C)C)NC(=O)[C@H](CCCNC(=N)N)NC(=O)[C@H](CCC(N)=O)NC(=O)[C@@H](NC(=O)[C@@H](NC(=O)[C@@H]1CSSC[C@H](NC(=O)CN)C(=O)N[C@@H](CCCNC(=N)N)C(=O)N[C@@H](Cc2ccccc2)C(=O)NCC(=O)N[C@@H]([C@@H](C)O)C(=O)N1)[C@@H](C)O)C(C)C)C(=O)N[C@@H](Cc1ccc(O)cc1)C(=O)N[C@@H](CCC(N)=O)C(=O)N[C@@H](Cc1ccccc1)C(=O)N[C@H](C(=O)N[C@@H](CC(=O)O)C(=O)N[C@@H](CCCCN)C(=O)N[C@@H](CC(=O)O)C(=O)N[C@@H](CCCCN)C(=O)N[C@@H](CC(=O)O)C(=O)N[C@@H](CC(N)=O)C(=O)N[C@H](C(=O)N[C@@H](C)C(=O)N1CCC[C@H]1C(=O)N[C@@H](CCCNC(=N)N)C(=O)N[C@H](C(=O)N[C@@H](CCCCN)C(=O)N[C@H](C(=O)N[C@@H](CO)C(=O)N1CCC[C@H]1C(=O)N[C@@H](CCC(N)=O)C(=O)NCC(=O)N[C@@H](Cc1ccc(O)cc1)C(N)=O)C(C)C)[C@@H](C)O)C(C)C)[C@@H](C)O [compound 155] (H-GCRFGTCTVQRLAHQIYQFTDKDKDNVAPRTKVSPQGY-NH2; disulfide 2-7; N-terminus assumed)
EC50 (hAM1 receptor): 116 nM
EC50 (hAMY3 receptor): 0.045 nM

CC[C@H](C)[C@H](NC(=O)[C@H](CCC(N)=O)NC(=O)[C@H](Cc1c[nH]cn1)NC(=O)[C@H](C)NC(=O)[C@H](CC(C)C)NC(=O)[C@H](CCCNC(=N)N)NC(=O)[C@@H](NC(=O)[C@@H](NC(=O)[C@@H](NC(=O)[C@@H]1CSSC[C@H](NC(=O)[C@H](CCCCN)NC(=O)CC[C@H](NC(=O)CCCCCCCCCCCCCCCCCCC(=O)O)C(=O)O)C(=O)N[C@@H](CC(N)=O)C(=O)N[C@@H]([C@@H](C)O)C(=O)N[C@@H](C)C(=O)N[C@@H]([C@@H](C)O)C(=O)N1)[C@@H](C)O)C(C)C)[C@@H](C)CC)C(=O)N[C@@H](Cc1ccc(O)cc1)C(=O)N[C@@H](CCC(N)=O)C(=O)N[C@@H](Cc1ccccc1)C(=O)N[C@H](C(=O)N[C@@H](CC(=O)O)C(=O)N[C@@H](CCCCN)C(=O)N[C@@H](CC(=O)O)C(=O)N[C@@H](CCCCN)C(=O)N[C@@H](CC(=O)O)C(=O)N[C@@H](CC(N)=O)C(=O)N[C@H](C(=O)N[C@@H](C)C(=O)N1CCC[C@H]1C(=O)N1CCC[C@H]1C(=O)N[C@H](C(=O)N[C@@H](CC(N)=O)C(=O)N[C@H](C(=O)NCC(=O)N[C@@H](CO)C(=O)N[C@@H](CC(N)=O)C(=O)NCC(=O)N1C[C@H](O)C[C@H]1C(N)=O)C(C)C)[C@@H](C)O)C(C)C)[C@@H](C)O [compound 159] ({C20 diacid-γGlu}-KCNTATCTVIRLAHQIYQFTDKDKDNVAPPTNVGSNG[Hyp]-NH2; disulfide 2-7)
EC50 (hAM1 receptor): > 5000 nM
EC50 (hAMY3 receptor): 0.048 nM

CC[C@H](C)[C@H](NC(=O)[C@H](C)NC(=O)CNC(=O)[C@H](Cc1ccccc1)NC(=O)[C@H](CC(N)=O)NC(=O)[C@H](CC(N)=O)NC(=O)[C@H](CO)NC(=O)[C@H](CO)NC(=O)[C@H](Cc1c[nH]cn1)NC(=O)[C@@H](NC(=O)[C@H](CC(C)C)NC(=O)[C@H](Cc1ccccc1)NC(=O)[C@H](CC(N)=O)NC(=O)[C@H](C)NC(=O)[C@H](CC(C)C)NC(=O)[C@H](CCCNC(=N)N)NC(=O)[C@H](CCC(N)=O)NC(=O)[C@@H](NC(=O)[C@H](C)NC(=O)[C@@H]1CSSC[C@H](NC(=O)[C@@H](N)CCCCN)C(=O)N[C@@H](CC(N)=O)C(=O)N[C@@H]([C@@H](C)O)C(=O)N[C@@H](C)C(=O)N[C@@H]([C@@H](C)O)C(=O)N1)[C@@H](C)O)C(C)C)C(=O)N[C@@H](CC(C)C)C(=O)N1CCC[C@H]1C(=O)N[C@@H](CO)C(=O)N[C@H](C(=O)N[C@@H](CCCCN)C(=O)N[C@H](C(=O)NCC(=O)N1CCC[C@H]1C(=O)N[C@@H](CC(N)=O)C(=O)NCC(=O)N[C@@H](Cc1ccc(O)cc1)C(N)=O)[C@@H](C)CC)[C@@H](C)O [compound 162] (H-KCNTATCATQRLANFLVHSSNNFGAILPSTKIGPNGY-NH2; disulfide 2-7; N-terminus assumed)
EC50 (hAM1 receptor): > 5000 nM
EC50 (hAMY3 receptor): 0.051 nM

CC[C@H](C)[C@H](NC(=O)[C@H](C)NC(=O)CNC(=O)[C@H](Cc1ccccc1)NC(=O)[C@H](CC(N)=O)NC(=O)[C@H](CC(N)=O)NC(=O)[C@H](CO)NC(=O)[C@H](CO)NC(=O)[C@H](Cc1c[nH]cn1)NC(=O)[C@@H](NC(=O)[C@H](CC(C)C)NC(=O)[C@H](Cc1ccccc1)NC(=O)[C@H](CC(N)=O)NC(=O)[C@H](C)NC(=O)[C@H](CC(C)C)NC(=O)[C@H](CCCNC(=N)N)NC(=O)[C@H](CCC(N)=O)NC(=O)[C@@H](NC(=O)[C@H](C)NC(=O)[C@@H]1CSSC[C@H](NC(=O)[C@@H](N)CCCCN)C(=O)N[C@@H](CC(N)=O)C(=O)N[C@@H]([C@@H](C)O)C(=O)N[C@@H](C)C(=O)N[C@@H]([C@@H](C)O)C(=O)N1)[C@@H](C)O)C(C)C)C(=O)N[C@@H](CC(C)C)C(=O)N1CCC[C@H]1C(=O)N[C@@H](CO)C(=O)N[C@H](C(=O)N[C@@H](CCCCN)C(=O)N[C@H](C(=O)NCC(=O)N[C@@H](CO)C(=O)N[C@@H](CC(N)=O)C(=O)N[C@H](C(=O)N[C@@H](Cc1ccc(O)cc1)C(N)=O)[C@@H](C)O)[C@@H](C)CC)[C@@H](C)O [compound 180] (H-KCNTATCATQRLANFLVHSSNNFGAILPSTKIGSNTY-NH2; disulfide 2-7; N-terminus assumed)
EC50 (hAM1 receptor): > 5000 nM
EC50 (hAMY3 receptor): 0.082 nM

CC[C@H](C)[C@H](NC(=O)[C@H](CCC(N)=O)NC(=O)[C@H](Cc1c[nH]cn1)NC(=O)[C@H](C)NC(=O)[C@H](CC(C)C)NC(=O)[C@H](CCCNC(=N)N)NC(=O)[C@H](CCC(N)=O)NC(=O)[C@@H](NC(=O)[C@@H](NC(=O)[C@@H]1CSSC[C@H](NC(=O)[C@H](CCCCN)NC(=O)CC[C@H](NC(=O)CCCCCCCCCCCCCCCCCCC(=O)O)C(=O)O)C(=O)N[C@@H](CC(N)=O)C(=O)N[C@@H]([C@@H](C)O)C(=O)N[C@@H](CC(C)C)C(=O)N[C@@H]([C@@H](C)O)C(=O)N1)[C@@H](C)O)C(C)C)C(=O)N[C@@H](Cc1ccc(O)cc1)C(=O)N[C@@H](CCC(N)=O)C(=O)N[C@@H](Cc1ccccc1)C(=O)N[C@H](C(=O)N[C@@H](CC(=O)O)C(=O)N[C@@H](CCCCN)C(=O)N[C@@H](CC(=O)O)C(=O)N[C@@H](CCCCN)C(=O)N[C@@H](CC(=O)O)C(=O)N[C@@H](CC(N)=O)C(=O)N[C@H](C(=O)N[C@@H](C)C(=O)N1CCC[C@H]1C(=O)N1CCC[C@H]1C(=O)N[C@H](C(=O)N[C@@H](CC(N)=O)C(=O)N[C@H](C(=O)NCC(=O)N[C@@H](CO)C(=O)N[C@@H](CC(N)=O)C(=O)NCC(=O)N1C[C@H](O)C[C@H]1C(N)=O)C(C)C)[C@@H](C)O)C(C)C)[C@@H](C)O [compound 225] ({C20 diacid-γGlu}-KCNTLTCTVQRLAHQIYQFTDKDKDNVAPPTNVGSNG[Hyp]-NH2; disulfide 2-7)
EC50 (hAM1 receptor): > 5000 nM
EC50 (hAMY3 receptor): 0.186 nM
